Test results as given in PubChem BioAssay AID256 (DTP/NCI, 2004).
Values joined by “and” are separate entries in the source; they are usually repeats but may differ in a detail not shown here. Equal values may be shown once. Toxic doses and inconclusive results are not listed. Rule for the calls: active = survival T/C of 150% or more; inactive = T/C below 125% in these data.

Tested on: CD2F1 mice, L1210 leukemia ip, survival T/C
Experiment: NCI In Vivo Anticancer Drug Screen. Data for tumor model L1210 Leukemia (intraperitoneal) in CD2F1 (CDF1) mice
Conditions: higher = longer survival
Outline: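 Antitumor effect is scored in animals hosting a serially transplanted tumor. Values compare compound-dosed animals against vehicle-only controls as a simple quotient.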

[1] = endpoint: mean survival time, dose: 100.0 mg/kg/injection, schedule: Q04DX002 (ip), vehicle: saline with Tween-80
[2] = endpoint: mean survival time, dose: 200.0 mg/kg/injection, schedule: Q04DX002 (ip), vehicle: saline with Tween-80
[3] = endpoint: mean survival time, dose: 100.0 mg/kg/injection, schedule: Q01DX009 (ip), vehicle: saline with Tween-80
[4] = endpoint: mean survival time, dose: 200.0 mg/kg/injection, schedule: Q01DX009 (ip), vehicle: saline with Tween-80
[5] = endpoint: mean survival time, dose: 400.0 mg/kg/injection, schedule: Q01DX009 (ip), vehicle: saline with Tween-80
[6] = endpoint: mean survival time, dose: 50.0 mg/kg/injection, schedule: Q01DX009 (ip), vehicle: saline with Tween-80
[7] = endpoint: mean survival time, dose: 100.0 mg/kg/injection, schedule: Q01DX001 (ip), vehicle: saline with Tween-80
[8] = endpoint: mean survival time, dose: 200.0 mg/kg/injection, schedule: Q01DX001 (ip), vehicle: saline with Tween-80
[9] = endpoint: mean survival time, dose: 400.0 mg/kg/injection, schedule: Q01DX001 (ip), vehicle: saline with Tween-80

Measured: T/C

N[C@@H](Cc1ccc(O)c(O)c1)C(=O)O
inactive: endpoint: mean survival time, dose: 25.0 mg/kg/injection, schedule: Q01DX009 (ip), vehicle: saline 98 % of control | endpoint: mean survival time, dose: 50.0 mg/kg/injection, schedule: Q01DX009 (ip), vehicle: saline 97 % of control | endpoint: mean survival time, dose: 100.0 mg/kg/injection, schedule: Q01DX009 (ip), vehicle: saline 96 % of control | [1] 103 % of control | endpoint: mean survival time, dose: 200.0 mg/kg/injection, schedule: Q01DX009 (ip), vehicle: saline 103 % of control | [2] 95 % of control | endpoint: mean survival time, dose: 400.0 mg/kg/injection, schedule: Q01DX009 (ip), vehicle: saline 108 % of control | endpoint: mean survival time, dose: 400.0 mg/kg/injection, schedule: Q04DX002 (ip), vehicle: saline with Tween-80 98 % of control | endpoint: mean survival time, dose: 800.0 mg/kg/injection, schedule: Q01DX009 (ip), vehicle: saline 119 % of control

CC1Cc2c3ccc4ccccc4c3cc3cccc1c23 (stereo not drawn) (tested in a mixture with another compound)
inactive: endpoint: mean survival time, dose: 75.0 mg/kg/injection, schedule: Q04DX002 (ip), vehicle: saline with Tween-80 105 % of control | endpoint: mean survival time, dose: 150.0 mg/kg/injection, schedule: Q04DX002 (ip), vehicle: saline with Tween-80 105 % of control | endpoint: mean survival time, dose: 300.0 mg/kg/injection, schedule: Q04DX002 (ip), vehicle: saline with Tween-80 97 % of control

CCC(C)C(NC(=O)OCc1ccccc1)C(=O)ON1C(=O)CCC1=O (stereo not drawn)
inactive: endpoint: mean survival time, dose: 100.0 mg/kg/injection, schedule: Q04DX003 (ip), vehicle: saline sonified 95 % of control | endpoint: mean survival time, dose: 200.0 mg/kg/injection, schedule: Q04DX003 (ip), vehicle: saline sonified 90 % of control | endpoint: mean survival time, dose: 400.0 mg/kg/injection, schedule: Q04DX003 (ip), vehicle: saline sonified 100 % of control

COC(=O)C#CC(c1ccccc1)(c1ccccc1)c1ccccc1
inactive: [3] 103 % of control | [4] 101 % of control | [5] 109 % of control

C=C(C)CC(O)CCCCCC (stereo not drawn)
inactive: [6] 98 % of control | [3] 110 % of control | [4] 107 % of control

COc1cc2c(cc1OC)-c1ccc3cc4c(cc3c1N(C)C2)OCO4
inactive: endpoint: mean survival time, dose: 5.0 mg/kg/injection, schedule: Q01DX009 (ip), vehicle: water 106 % of control | endpoint: mean survival time, dose: 10.0 mg/kg/injection, schedule: Q01DX009 (ip), vehicle: water 105 % of control | endpoint: mean survival time, dose: 20.0 mg/kg/injection, schedule: Q01DX009 (ip), vehicle: water 105 % of control | endpoint: mean survival time, dose: 40.0 mg/kg/injection, schedule: Q01DX009 (ip), vehicle: water 108 % of control | endpoint: mean survival time, dose: 80.0 mg/kg/injection, schedule: Q01DX009 (ip), vehicle: water 103 % of control

C=CCN(CC#N)CC#N
inactive: endpoint: mean survival time, dose: 2.5 mg/kg/injection, schedule: Q04DX003 (ip), vehicle: Klucel (hydroxypropylcellulose) (HPC) 106 % of control | endpoint: mean survival time, dose: 5.0 mg/kg/injection, schedule: Q04DX003 (ip), vehicle: Klucel (hydroxypropylcellulose) (HPC) 97 % of control | endpoint: mean survival time, dose: 10.0 mg/kg/injection, schedule: Q04DX003 (ip), vehicle: Klucel (hydroxypropylcellulose) (HPC) 105 % of control

O=S(=O)(c1ccc(NC(=S)N/N=C/c2ccccc2O)cc1)N1CCCCC1
inactive: endpoint: mean survival time, dose: 12.5 mg/kg/injection, schedule: Q01DX009 (ip), vehicle: olive oil, sesame oil, peanut oil 98 % of control | endpoint: mean survival time, dose: 25.0 mg/kg/injection, schedule: Q01DX009 (ip), vehicle: olive oil, sesame oil, peanut oil 94 % of control | endpoint: mean survival time, dose: 50.0 mg/kg/injection, schedule: Q01DX009 (ip), vehicle: olive oil, sesame oil, peanut oil 102 % of control | endpoint: mean survival time, dose: 100.0 mg/kg/injection, schedule: Q01DX009 (ip), vehicle: olive oil, sesame oil, peanut oil 104 % of control | endpoint: mean survival time, dose: 200.0 mg/kg/injection, schedule: Q01DX009 (ip), vehicle: olive oil, sesame oil, peanut oil 94 % of control | endpoint: mean survival time, dose: 400.0 mg/kg/injection, schedule: Q01DX009 (ip), vehicle: olive oil, sesame oil, peanut oil 96 % of control

CN(C)S(=O)(=O)Oc1cccc([N+](=O)[O-])c1
inactive: endpoint: mean survival time, dose: 100.0 mg/kg/injection, schedule: Q04DX003 (ip), vehicle: saline with Tween-80 96 % of control

CCCCCCCCCCCCCCCCCCCOc1ccc(OCCCCCCCCCCCCCC)cc1
inactive: [7] 86 % of control | [8] 88 % of control | [9] 88 % of control

Cc1ccc(S(=O)[O-])cc1.[C-]#[O+].[C-]#[O+].[Fe+6].[c-]1[c-][c-][cH-][c-]1
inactive: endpoint: mean survival time, dose: 50.0 mg/kg/injection, schedule: Q04DX002 (ip), vehicle: saline with Tween-80 97 % of control | [2] 108 % of control

CC(=O)NNC(=O)c1ccccc1N=NN(C)C
inactive: endpoint: mean survival time, dose: 18.75 mg/kg/injection, schedule: Q01DX009 (ip), vehicle: Klucel (hydroxypropylcellulose) (HPC) 94 % of control and 100 % of control | endpoint: mean survival time, dose: 37.5 mg/kg/injection, schedule: Q01DX009 (ip), vehicle: Klucel (hydroxypropylcellulose) (HPC) 102 % of control and 111 % of control | endpoint: mean survival time, dose: 75.0 mg/kg/injection, schedule: Q01DX009 (ip), vehicle: Klucel (hydroxypropylcellulose) (HPC) 109 % of control | endpoint: mean survival time, dose: 150.0 mg/kg/injection, schedule: Q01DX009 (ip), vehicle: Klucel (hydroxypropylcellulose) (HPC) 105 % of control and 111 % of control

CC(S(N)(=O)=O)S(N)(=O)=O
inactive: [7] 105 % of control | [8] 102 % of control | [9] 94 % of control

COC(c1ccccc1)C(C)O (stereo not drawn)
inactive: [6] 100 % of control | [3] 100 % of control | [4] 95 % of control

COc1ccc(NC(=O)Nc2cc(Cl)c(OC)cc2OC)cc1
inactive: [1] 93 % of control | [2] 86 % of control

O=[N+]([O-])c1ccc(N/N=C2\C(c3ccccc3)=C(c3ccccc3)CC2Cl)c([N+](=O)[O-])c1 (stereo not drawn)
inactive: [7] 90 % of control | [8] 101 % of control | [9] 96 % of control

COC1OC2COc3ccccc3OC2C(N)C1N(C)c1ccccc1 (stereo not drawn)
inactive: endpoint: mean survival time, dose: 75.0 mg/kg/injection, schedule: Q01DX001 (ip), vehicle: saline with Tween-80 100 % of control | endpoint: mean survival time, dose: 150.0 mg/kg/injection, schedule: Q01DX001 (ip), vehicle: saline with Tween-80 97 % of control

CC(=O)OC1C(NC(=O)N(CCCl)N=O)C(OC(C)=O)C(OC(C)=O)C(NC(=O)N(CCCl)N=O)C1OC(C)=O (stereo not drawn)
inactive: endpoint: mean survival time, dose: 20.0 mg/kg/injection, schedule: Q01DX001 (ip), vehicle: saline with Tween-80 124 % of control
active: endpoint: mean survival time, dose: 60.0 mg/kg/injection, schedule: Q01DX001 (ip), vehicle: saline with Tween-80 164 % of control | endpoint: mean survival time, dose: 90.0 mg/kg/injection, schedule: Q01DX001 (ip), vehicle: saline with Tween-80 160 % of control | endpoint: mean survival time, dose: 130.0 mg/kg/injection, schedule: Q01DX001 (ip), vehicle: saline with Tween-80 174 % of control | [8] 168 % of control | endpoint: mean survival time, dose: 300.0 mg/kg/injection, schedule: Q01DX001 (ip), vehicle: saline with Tween-80 218 % of control

CC(=O)C(=O)C1=C2CCCN2CCc2cc3c(cc21)OCO3
inactive: endpoint: mean survival time, dose: 12.5 mg/kg/injection, schedule: Q01DX009 (ip), vehicle: water 96 % of control | endpoint: mean survival time, dose: 25.0 mg/kg/injection, schedule: Q01DX009 (ip), vehicle: water 94 % of control | endpoint: mean survival time, dose: 50.0 mg/kg/injection, schedule: Q01DX009 (ip), vehicle: water 91 % of control | endpoint: mean survival time, dose: 100.0 mg/kg/injection, schedule: Q01DX009 (ip), vehicle: water 96 % of control

COc1ccc(CC(N)C(=O)NC2C(COP(=O)(O)OC3CC(n4cc(C)c(=O)[nH]c4=O)OC3CO)OC(n3cnc4c(N(C)C)ncnc43)C2O)cc1 (stereo not drawn)
inactive: endpoint: median survival time, dose: 5.63 mg/kg/injection, schedule: Q01DX005 (ip), vehicle: water 96 % of control | endpoint: median survival time, dose: 11.25 mg/kg/injection, schedule: Q01DX005 (ip), vehicle: water 96 % of control | endpoint: median survival time, dose: 21.9 mg/kg/injection, schedule: Q01DX005 (ip), vehicle: saline 109 % of control | endpoint: median survival time, dose: 22.5 mg/kg/injection, schedule: Q01DX005 (ip), vehicle: water 94 % of control | endpoint: median survival time, dose: 43.8 mg/kg/injection, schedule: Q01DX005 (ip), vehicle: saline 106 % of control | endpoint: median survival time, dose: 45.0 mg/kg/injection, schedule: Q01DX005 (ip), vehicle: water 100 % of control | endpoint: median survival time, dose: 87.5 mg/kg/injection, schedule: Q01DX005 (ip), vehicle: saline 108 % of control | endpoint: median survival time, dose: 90.0 mg/kg/injection, schedule: Q01DX005 (ip), vehicle: water 104 % of control | endpoint: median survival time, dose: 175.0 mg/kg/injection, schedule: Q01DX005 (ip), vehicle: saline 102 % of control

COc1ccc(OC)c(NC(=O)c2cccc([N+](=O)[O-])c2)c1
inactive: [3] 90 % of control and 103 % of control | [4] 92 % of control and 93 % of control | [5] 89 % of control and 95 % of control

CCCCCCCCCCCCCCCCC(C)(O)C#CC(C)(O)CCCCCCCCCCCCCCCC (stereo not drawn)
inactive: endpoint: mean survival time, dose: 100.0 mg/kg/injection, schedule: Q01DX005 (ip), vehicle: other 97 % of control | endpoint: mean survival time, dose: 200.0 mg/kg/injection, schedule: Q01DX005 (ip), vehicle: other 97 % of control | endpoint: mean survival time, dose: 400.0 mg/kg/injection, schedule: Q01DX005 (ip), vehicle: other 101 % of control
